# Measured values reported in patent publication US4367237A, “Prostacyclin analogues” (priority 1978, dated 1983).
# Where a name gives a salt, the structure may show the parent alone.
# Key:
# [1] = system: isolated cat coronary artery; conditions: J.C.S. Chem. Comm., 375 (1978); cited from earlier work
# [2] = system: human blood platelet aggregation; conditions: J.C.S. Chem. Comm., 375 (1978); cited from earlier work
# [3] = system: platelet-rich plasma of rats; assay: PAI (Inhibitory activity on blood platelet aggregation), adenosine diphosphate-induced; type: cell-based, rat; conditions: 50% inhibition of ADP-induced aggregation
# blood pressure = assay: BP (Hypotensive activity); type: in vivo; conditions: intravenous, allobarbital-anaesthetised dog
# Source text: (§1) The results of standard laboratory tests are shown below in Table 1, wherein the various activities are shown relative to PGE1.
# The compounds produce falls in blood pressure when administered intravenously to the allobarbital-anaesthetised dog.
# [4] = system: women in the expired stage of pregnancy; assay: Clinical: induction of labour; type: in vivo, human; conditions: pessary 0.2 mg, vaginal, one to three times at one- to three-hour intervals; five women
# Method: One pessary containing 0.2 mg of (13E)-(6RS,9α,11α,15S)-6,9-epithio-11,15-dihydroxyprost-13-enoic acid methyl ester (prepared as described in Example 21) was administered vaginally one to three times at one- to three-hour intervals to five women aged from twenty to forty years in the expired stage of pregnancy.
# gastric acid secretion = assay: GSI (Inhibitory activity on gastric acid secretion); type: in vivo; conditions: increase in gastric acid pH from 2.0-2.5 to at least 4.0 in 50% of pentagastrin-treated rats, perfused intravenously
# Source text: as §1
# The compounds produce an increase in gastric acid pH from 2.0-2.5 to at least 4.0 in 50% of pentagastrin-treated rats when perfused intravenously.
# [5] = system: women in the early stages of pregnancy; assay: Clinical: termination of pregnancy; type: in vivo, human
# Method: (§2) One pessary containing 1 mg of (13E)-(6RS,9α,11α,15S)-6,9-epithio-11,15-dihydroxyprost-13-enoic acid methyl ester (prepared as described in Example 21) was administered vaginally two to five times at one- to three-hour intervals to fifteen women aged from twenty to forty years in the early stages of pregnancy.
# One to three tablets containing 0.25 mg of (13E)-(6RS,9α,11α,15R)-6,9-epithio-11,15-dihydroxy-16,16-dimethylprost-13-enoic acid methyl ester (prepared as described in Example 17) were administered orally one to five times to seven women aged from twenty-five to thirty years in the early stages of pregnancy.
# diarrhoea = assay: Diarrhoea (Diarrhoea-producing activity); type: in vivo; conditions: diarrhoea in 50% of mice, oral
# Source text: as §1
# The compounds produce diarrhoea in 50% of mice by oral administration.
# stress ulceration = assay: GUI (Inhibitory activity on gastric ulceration), stress ulceration; type: in vivo, rat; conditions: stress ulceration of rats, oral, water bath 19° C. for 6 hours
# Method: as §1
# The compounds produce an inhibition of stress ulceration by oral administration in the stress ulceration of rats produced according to the method of Takagi and Okabe [Jap. J. Pharmc., 18, 9-18 (1968)], i.e. by soaking rats in a water bath at 19° C. for 6 hours.
# uterine contraction = assay: UCA (Uterine contraction activity); type: in vivo, pregnant female rat; conditions: for UCA (Uterine contraction activity), relative to PGE1: pregnant female rat, intravenous, 20th day of gestation
# Source text: as §1
# The compounds stimulate uterine contraction in the pregnant female rat when administered intravenously on the 20th day of gestation.
# Moreover, other compounds of the present invention [prepared as hereafter described in the Examples] other than the above compounds for which results are given in Table 1 stimulate uterine contraction when administered intravenously to the pregnant female rat on the 20th day of gestation at doses of 0.2-100 μg/kg animal body weight.
# [6] = system: women two or three days before the expected date of menstruation; assay: Clinical: beginning of menstruation; type: in vivo, human
# Method: as §2, with “vaginally one” for “vaginally two”, “years two or three days before” for “years in”, “the expected date” for “the early stages”, “of menstruation.” for “of pregnancy.”
# One pessary containing 0.5 mg of (13E)-(6RS,9α,11α,15R)-6,9-epithio-11,15-dihydroxy-16,16-dimethylprost-13-enoic acid methyl ester (prepared as described in Example 21) was administered vaginally one to three times at one- to three-hour intervals to three women aged twenty or twenty-one years two or three days before the expected date of menstruation.
# One to three tablets containing 0.5 mg of (13E)-(6RS,9α,11α,15S)-6,9-epithio-11,15-dihydroxyprost-13-enoic acid methyl ester (prepared as described in Example 17) were administered orally to five women aged from twenty to twenty-two years two or three days before the expected date of menstruation.
# [7] = LD50 (Acute toxicity tests); conditions: mouse, in vivo, iv; injected intravenously into mice
# Method: The compounds are injected intravenously into mice.
# artery = conditions: cited from earlier work
# [8] = system: blood platelet aggregation of the human; conditions: cited from earlier work
# blood platelets = conditions: cited from earlier work
"Diarrhoea (Diarrhoea-producing activity), relative to PGE1 (diarrhoea)",SMILES,activity on isolated cat coronary artery [1],activity on human blood platelet aggregation [2],"PAI (Inhibitory activity on blood platelet aggregation), relative to PGE1 [3]","BP (Hypotensive activity), relative to PGE1 (blood pressure)","GSI (Inhibitory activity on gastric acid secretion), relative to PGE1 (gastric acid secretion)","GUI (Inhibitory activity on gastric ulceration), relative to PGE1 (stress ulceration)","UCA (Uterine contraction activity), relative to PGE1 (uterine contraction)",LD50 [7] [mg/kg],other results
< 0.1,"CCCCC[C@H](O)/C=C/[C@@H]1[C@H]2CC(CCCCC(=O)O)S[C@H]2C[C@H]1O (mixture of isomers) [B, (13E)-(6RS,9α,11α,15S)-6,9-epithio-11,15-dihydroxyprost-13-enoic acid]",vasoconstricting activity on isolated cat coronary artery,inhibitory activity on human blood platelet aggregation,0.038,0.2,< 0.1,< 0.5,10,–,"stimulatory activity on uterine contraction (in words) (uterine contraction; rat, in vivo): selective strong stimulatory activity on uterine contraction"
0.514,"CCCC[C@H](C)[C@H](O)/C=C/[C@@H]1[C@H]2CC(CCCCC(=O)OC)S[C@H]2C[C@H]1O (mixture of isomers) [E, (13E)-(6RS,9α,11α,15S,16S)-6,9-epithio-11,15-dihydroxy-16-methylprost-13-enoic acid methyl ester]",–,–,0.21,0.55,< 0.3,< 0.5,27.3,–,–
1,"CCCCC[C@H](O)/C=C/[C@H]1[C@H](O)CC(=O)[C@@H]1CCCCCCC(=O)O [PGE1, reference compound]",–,–,–,1,1,–,1,–,–
< 0.1,"CCCCC[C@H](O)/C=C/[C@@H]1[C@H]2C/C(=C/CCCC(=O)OC)O[C@H]2C[C@H]1O [PGI2 methyl ester, reference compound]",–,–,85,20,–,–,0.5,–,–
–,"CCCCC[C@H](O)/C=C/[C@@H]1[C@H]2C/C(=C/CCCC(=O)O)O[C@H]2C[C@H]1O [PGI2, (5Z,13E)-(9α,11α,15S)-6,9-epoxy-11,15-dihydroxyprosta-5,13-dienoic acid]",–,–,–,–,–,–,–,–,activity on the artery (artery): relaxing activity on the artery; inhibition of arachidonic acid-induced blood platelet aggregation [8]: strongly inhibits
–,CCCCC[C@H](O)/C=C/[C@@H]1[C@H]2CC(CCCCC(=O)O)S[C@H]2C[C@H]1O (stereo partly shown) [sodium salt],vasoconstricting activity on isolated cat coronary artery,inhibitory activity on human blood platelet aggregation,–,–,–,–,–,–,–
–,CCCCC[C@H](O)/C=C/[C@H]1O[C@H]2C[C@H](O2)[C@@H]1C/C=C\CCCC(=O)O [thromboxane A2],–,–,–,–,–,–,–,–,activity on blood platelets (blood platelets): aggregating activity on blood platelets; activity on the artery (artery): contracting activity on the artery

SMILES,"Diarrhoea (Diarrhoea-producing activity), relative to PGE1 (diarrhoea)",activity on isolated cat coronary artery [1],activity on human blood platelet aggregation [2],"PAI (Inhibitory activity on blood platelet aggregation), relative to PGE1 [3]","BP (Hypotensive activity), relative to PGE1 (blood pressure)","GSI (Inhibitory activity on gastric acid secretion), relative to PGE1 (gastric acid secretion)","GUI (Inhibitory activity on gastric ulceration), relative to PGE1 (stress ulceration)","UCA (Uterine contraction activity), relative to PGE1 (uterine contraction)",LD50 [7] [mg/kg],other results
"CCCCC[C@H](O)/C=C/[C@@H]1[C@H]2CC(CCCCC(=O)OC)S[C@H]2C[C@H]1O (mixture of isomers) [A, (13E)-(6RS,9α,11α,15S)-6,9-epithio-11,15-dihydroxyprost-13-enoic acid methyl ester]",0.072,vasoconstricting activity on isolated cat coronary artery,inhibitory activity on human blood platelet aggregation,0.03,0.2,< 0.1,< 0.5,11.5,100,"induction of labour [4]: confirmed in all the cases; termination of pregnancy ([5]; pessary 1 mg, vaginal, two to five times, fifteen women): confirmed in all the cases; beginning of menstruation ([6]; one to three tablets 0.5 mg, oral, five women): confirmed in all the cases; beginning of menstruation ([6]; pessary 1 mg, vaginal, one to five times, fifteen women): confirmed in all the cases"
"CCCCC(C)(C)[C@H](O)/C=C/[C@@H]1[C@H]2CC(CCCCC(=O)OC)S[C@H]2C[C@H]1O (mixture of isomers) [D, (13E)-(6RS,9α,11α,15R)-6,9-epithio-11,15-dihydroxy-16,16-dimethylprost-13-enoic acid methyl ester]",0.095,–,–,0.006,< 0.1,< 0.3,< 0.5,23.1,25,"termination of pregnancy ([5]; one to three tablets 0.25 mg, oral, one to five times, seven women): confirmed in all the cases; beginning of menstruation ([6]; pessary 0.5 mg, vaginal, one to three times, three women): confirmed in all the cases"
"CCCCC1([C@H](O)/C=C/[C@@H]2[C@H]3CC(CCCCC(=O)OC)S[C@H]3C[C@H]2O)CCC1 (stereo partly drawn) [C, (13E)-(6RS,9α,11α,15R)-6,9-epithio-11,15-dihydroxy-15-(1-butylcyclobutyl)-16,17,18,19,20-pentanorprost-13-enoic acid methyl ester]",< 0.02,–,–,0.011,< 0.1,0.3,< 0.5,15.8,100,–
